From US20250084095A1, “Aminopyrimidine Derivatives as Cyclin-Dependent Kinase Inhibitors” (Accutar Biotechnology Inc., priority 2023, published 2025)

Legend:
22RV1 cells = test: Cell growth inhibition of 22RV1 cells (CellTiter-Glo); assay type: cell-based; settings: Homo sapiens, 22Rv1, 120 h, 5 days, CellTiter-Glo, read-out: 22RV1 Cell Growh GI50
Protocol: For cell growth assay, 22RV1 (ATCC, CRL-2505) cells were seeded in 96-well plates at 1000 cells/well in 90 μl of RPMI1640 growth medium containing 20% FBS and 1% Penicillin Streptomycin, and then incubated at 37° C. overnight. The following day, the test compound was administered to the cells by using 1000× compound stock solution prepared in DMSO at various concentrations. 1000× compound stock solution was first diluted in culturing medium to 10×, then 10 uL compound medium was added to each well in the cell plates. After administration of the compound, the cells were then incubated at 37° C. for 5 days. Upon completion, the plates were equilibrated at room temperature for approximately 10 min. 100 μl of CellTiter-Glo® Reagent (Promega) was added to each well. The plates were then incubated at room temperature for 10 min and luminescence was recorded by EnSpire plate reader (PerkinElmer).
22RV1 cells were obtained from American Type Culture Collection (ATCC, CRL-2505). 22RV1 cells were seeded in 96-well plates at 1000 cells/well in 90 μL of RPMI1640 growth medium containing 10% FBS and 1% Penicillin Streptomycin, and then incubated at 37° C. overnight. The following day, the test compound was administered to the cells by using 1000× compound stock solution prepared in DMSO at various concentrations. […], then 10 uL compound medium was added to each well in the cell plates. After administration of the compound, the cells were then incubated at […] for 5 days. Upon completion, the plates were equilibrated at room temperature for approximately 10 minutes. 100 μL of CellTiter-Glo® Reagent (Promega) was added to each well. The plates were then incubated at room temperature for 10 minutes and luminescence was recorded by EnSpire plate reader (PerkinElmer).

[1] = test system: Phospho-Rb (Ser807/811) in MCF7 cells; test: Phospho-Rb expression inhibition in MCF7 cells quantified by in cell Western; assay type: cell-based, human; settings: Homo sapiens, MCF7, 24 h, 24 hours, in cell Western, read-out: MCF7 pRb IC50
Protocol: MCF7 cells were obtained from American Type Culture Collection (ATCC, HTB-22). MCF7 cells were plated in 96-well plates (VWR #10062-900, or Coming #3904) in 90 μL culture medium at a density of 20,000 cells/well in the DMEM growth medium containing 10%/FBS and 1% Penicillin Streptomycin, and then incubated at 37° C. overnight. The following day, the test compound was administered to the cells by using 1000× compound stock solution prepared in DMSO at various concentrations. 1000× compound stock solution was first diluted in culturing medium to 10×, then 10 μL compound medium was added to each well in the cell plates. After administration of the compound, the cells were then incubated at 37° C. for 24 h. Upon completion, the cells were washed with PBS briefly. 150 μL/well of 4% formaldehyde was added and the plates were incubated at room temperature for 20 min. The cells were washed with PBS briefly, and permeabilized with 150 µL/well of ice cold 100% methanol for 10 min. The cells were washed with PBS briefly and blocked with 100 µL/well LI-COR blocking buffer for 1 h at room temperature with gentle shaking. The cells were incubated overnight at 4° C. with 50 μL primary antibody rabbit anti-Phospho-Rb (Ser807/811) (1: 500, Cell Signaling, #8516) and anti-Rb (1:200, Santa Cruz, sc-73598) diluted in Intercept Blocking Buffer (LI-COR, #927-60001) containing 0.1% Tween 20. The next day, the cells were washed with 200 μL PBS containing 0.1% Tween 20, 5×5 mins at room temperature with gentle shaking, and incubated with 50 μL secondary antibody, IRDye® 800CW Goat anti-Rabbit IgG (1:1000, LI-COR, #926-32211) and FRDye® 680RD Goat anti-Mouse IgG (1:1000, LI-COR, #926-68070), in LI-COR […] blocking buffer with 0.2% Tween 20 for 1 h at room temperature with gentle shaking. The cells were washed with 200 μL PBS containing 0.1% Tween 20, 5×5 min at room temperature with gentle shaking. The cells were washed with PBS for 5 mins. 100 μL fresh PBS was added to each well and the plates were imaged on a LI-COR Odyssey CLX plate reader.
MCF7 cells were obtained from American Type Culture Collection (ATCC, HTB-22). SW1573-CDK6 KO and SW1573-CDK4 KO cells were generated by the CRISPR-Cas9 technology. All cells were plated in 96-well plates (VWR #10062-900, or Corning #3904) in 90 uL culture medium at a density of 20,000 cells/well in the respective growth medium containing 10% FBS and 1% Penicillin Streptomycin, and then incubated at 37° C. overnight. The following day, the test compound was administered to the cells by using 1000× compound stock solution prepared in DMSO at various concentrations. 1000× compound stock solution was first diluted in culturing medium to 10×, then 10 uL compound medium was added to each well in the cell plates. After administration of the compound, the cells were then incubated at 37° C. for 24 hours. Upon completion, the cells were washed with PBS briefly. 150 uL/well of 4% formaldehyde was added and the plates were incubated at room temperature for 20 mins. The cells were washed with PBS briefly, and permeabilized with 150 uL/well of ice cold 100% methanol for 10 mins. The cells were washed with PBS briefly and blocked with 100 uL/well LI-COR blocking buffer for 1 hr at room temperature with gentle shaking. The cells were incubated overnight at 4° C. with 50 uL primary antibody rabbit anti-Phospho-Rb (Ser807/811) (1: 500, Cell Signaling, #8516) and anti-Rb (1:200, Santa Cruz, sc-73598) diluted in Intercept Blocking Buffer (LI-COR, #927-60001) containing 0.1% Tween 20. The next day, the cells were washed with 200 uL PBS containing 0.1% Tween 20, 5×5 mins at room temperature with gentle shaking, and incubated with 50 uL secondary antibody, IRDye® 800CW Goat anti-Rabbit IgG (1:1000, LI-COR, #926-32211) and IRDye®680RD Goat anti-Mouse IgG (1:1000, LI-COR, #926-68070), in LI-COR blocking buffer with 0.2% Tween 20 for 1 hr at room temperature with gentle shaking. […]

| SMILES | GI50 (22RV1 cells) | IC50 [1] |
| --- | --- | --- |
| CC(C)n1c(C(C)(C)O)nc2c(F)cc(-c3nc(N[C@@H]4[C@H](C)[C@H]5CO[C@H](O5)[C@H]4O)ncc3Cl)cc21 [Compound 13, (1S,2S,3R,4S,5R)-3-((5-chloro-4-(4-fluoro-2-(2-hydroxypropan-2-yl)-1-isopropyl-1H-benzo[d]imidazol-6-yl)pyrimidin-2-yl)amino)-2-methyl-6,8-dioxabicyclo[3.2.1]octan-4-ol] | 0.12 to 0.45 µM | 0.04 to 0.15 µM |
| COC(=O)N1CC[C@@H](c2nc3c(F)cc(-c4nc(N[C@@H]5[C@H](C)[C@H]6CO[C@H](O6)[C@H]5O)ncc4Cl)cc3n2C(C)C)C1 [Compound 23, methyl (R)-3-(6-(5-chloro-2-(((1S,2S,3R,4S,5R)-4-hydroxy-2-methyl-6,8-dioxabicyclo[3.2.1]octan-3-yl)amino)pyrimidin-4-yl)-4-fluoro-1-isopropyl-1H-benzo[d]imidazol-2-yl)pyrrolidine-1-carboxylate] | 0.12 to 0.45 µM | 0.04 to 0.15 µM |
| CC(C)n1c(C(C)(C)O)nc2c(F)cc(-c3nc(N[C@@H]4C[C@H]5CO[C@H](O5)[C@H]4O)ncc3F)cc21 [Compound 27, (1S,3R,4S,5R)-3-((5-fluoro-4-(4-fluoro-2-(2-hydroxypropan-2-yl)-1-isopropyl-1H-benzo[d]imidazol-6-yl)pyrimidin-2-yl)amino)-6,8-dioxabicyclo[3.2.1]octan-4-ol] | 0.12 to 0.45 µM | 0.04 to 0.15 µM |
| CC(C)n1c(C(C)(C)O)nc2c(F)cc(-c3nc(N[C@@H]4C[C@H]5CO[C@H](O5)[C@H]4O)ncc3C(F)F)cc21 [Compound 29, (1S,3R,4S,5R)-3-((5-(difluoromethyl)-4-(4-fluoro-2-(2-hydroxypropan-2-yl)-1-isopropyl-1H-benzo[d]imidazol-6-yl)pyrimidin-2-yl)amino)-6,8-dioxabicyclo[3.2.1]octan-4-ol] | 0.45 to 3 µM | 0.15 to 1 µM |
| CC(C)(O)C1=Nc2c(F)cc(-c3nc(N[C@@H]4C[C@H]5CO[C@H](O5)[C@H]4O)ncc3Cl)cc2C12CCCC2 [Compound 33, (1S,3R,4S,5R)-3-((5-chloro-4-(7′-fluoro-2′-(2-hydroxypropan-2-yl)spiro[cyclopentane-1,3′-indol]-5′-yl)pyrimidin-2-yl)amino)-6,8-dioxabicyclo[3.2.1]octan-4-ol] | 0.12 to 0.45 µM | 0.04 to 0.15 µM |
| C[C@H]1COc2c(-c3nc(N[C@@H]4C[C@H]5CO[C@H](O5)[C@H]4O)ncc3Cl)cc(F)c3nc(C(C)(C)O)n1c23 [Compound 37, (1S,3R,4S,5R)-3-((5-chloro-4-((S)-8-fluoro-2-(2-hydroxypropan-2-yl)-3-methyl-3,4-dihydro-5-oxa-1,2a-diazaacenaphthylen-6-yl)pyrimidin-2-yl)amino)-6,8-dioxabicyclo[3.2.1]octan-4-ol] | 0.12 to 0.45 µM | 0.04 to 0.15 µM |
| C[C@@H]1COc2c(-c3nc(N[C@@H]4C[C@H]5CO[C@H](O5)[C@H]4O)ncc3Cl)cc(F)c3nc(C(C)(C)O)n1c23 [Compound 38, (1S,3R,4S,5R)-3-((5-chloro-4-((R)-8-fluoro-2-(2-hydroxypropan-2-yl)-3-methyl-3,4-dihydro-5-oxa-1,2a-diazaacenaphthylen-6-yl)pyrimidin-2-yl)amino)-6,8-dioxabicyclo[3.2.1]octan-4-ol] | 0.12 to 0.45 µM | ≤ 0.04 µM |
| CC1OCC(C)n2c1nc1c(F)cc(-c3nc(N[C@@H]4C[C@H]5CO[C@H](O5)[C@H]4O)ncc3Cl)cc12 (stereo partly drawn) [Compound 49, (1S,3R,4S,5R)-3-((5-chloro-4-(9-fluoro-1,4-dimethyl-3,4-dihydro-1H-benzo[4,5]imidazo[2,1-c][1,4]oxazin-7-yl)pyrimidin-2-yl)amino)-6,8-dioxabicyclo[3.2.1]octan-4-ol] | 0.12 to 0.45 µM | 0.04 to 0.15 µM |

The next lines start with the values.

| GI50 (22RV1 cells) | IC50 [1] | SMILES |
| --- | --- | --- |
| ≤ 0.12 µM |  | [2H][C@H]1[C@@H](Nc2ncc(Cl)c(-c3cc(F)c4nc(C(C)(C)O)n(C(C)C)c4c3)n2)[C@H](O)[C@@H]2OC[C@H]1O2 [Compound 2, (1S,2S,3R,4S,5R)-3-((5-chloro-4-(4-fluoro-2-(2-hydroxypropan-2-yl)-1-isopropyl-1H-benzo[d]imidazol-6-yl)pyrimidin-2-yl)amino)-6,8-dioxabicyclo[3.2.1]octan-2-d-4-ol] |
| 0.12 to 0.45 µM | 0.04 to 0.15 µM | COC(=O)N1CC[C@@H](c2nc3c(F)cc(-c4nc(N[C@@H]5C[C@H]6CO[C@H](O6)[C@H]5O)ncc4Cl)cc3n2C(C)C)C1 [Compound 4, methyl (R)-3-(6-(5-chloro-2-(((1S,3R,4S,5R)-4-hydroxy-6,8-dioxabicyclo[3.2.1]octan-3-yl)amino)pyrimidin-4-yl)-4-fluoro-1-isopropyl-1H-benzo[d]imidazol-2-yl)pyrrolidine-1-carboxylate] |
| 0.12 to 0.45 µM | 0.15 to 1 µM | CC(C)n1c([C@@H]2CCC(F)(F)C2)nc2c(F)cc(-c3nc(N[C@@H]4C[C@H]5CO[C@H](O5)[C@H]4O)ncc3Cl)cc21 [Compound 5, (1S,3R,4S,5R)-3-((5-chloro-4-(2-((R)-3,3-difluorocyclopentyl)-4-fluoro-1-isopropyl-1H-benzo[d]imidazol-6-yl)pyrimidin-2-yl)amino)-6,8-dioxabicyclo[3.2.1]octan-4-ol] |
| ≤ 0.12 µM | 0.04 to 0.15 µM | CC(C)n1c(C(C)(C)O)c(C#N)c2c(F)cc(-c3nc(N[C@@H]4C[C@H]5CO[C@H](O5)[C@H]4O)ncc3Cl)cc21 [Compound 26, 6-(5-chloro-2-(((1S,3R,4S,5R)-4-hydroxy-6,8-dioxabicyclo[3.2.1]octan-3-yl)amino)pyrimidin-4-yl)-4-fluoro-2-(2-hydroxypropan-2-yl)-1-isopropyl-1H-indole-3-carbonitrile] |
| ≤ 0.12 µM | ≤ 0.04 µM | CC1=Nc2c(F)cc(-c3nc(N[C@@H]4C[C@H]5CO[C@H](O5)[C@H]4O)ncc3Cl)cc2C12CCCC2 [Compound 32, (1S,3R,4S,5R)-3-((5-chloro-4-(7′-fluoro-2′-methylspiro[cyclopentane-1,3′-indol]-5′-yl)pyrimidin-2-yl)amino)-6,8-dioxabicyclo[3.2.1]octan-4-ol] |
